Data on 19 molecules can be found in US12447153B2, “HER2 mutation inhibitors” (Array BioPharma Inc., priority 2021, dated 2025).

One experiment has as its target ErbB2 WT (Homo sapiens (Human), UniProt P04626). As to the kind of experiment: ErbB Enzyme Assay (HTRF KinEASE-TK), Assay 2. Type of experiment: biochemical. (In general: Time-resolved FRET reads energy transfer from a long-lived donor to a nearby acceptor.)
The next experiment deals with EGFR (Homo sapiens (Human), UniProt P00533). The experiment can be described thus: ErbB Enzyme Assay (HTRF KinEASE-TK), Assay 3. Format: biochemical.
Chain of EGFR (P00533 25-1210): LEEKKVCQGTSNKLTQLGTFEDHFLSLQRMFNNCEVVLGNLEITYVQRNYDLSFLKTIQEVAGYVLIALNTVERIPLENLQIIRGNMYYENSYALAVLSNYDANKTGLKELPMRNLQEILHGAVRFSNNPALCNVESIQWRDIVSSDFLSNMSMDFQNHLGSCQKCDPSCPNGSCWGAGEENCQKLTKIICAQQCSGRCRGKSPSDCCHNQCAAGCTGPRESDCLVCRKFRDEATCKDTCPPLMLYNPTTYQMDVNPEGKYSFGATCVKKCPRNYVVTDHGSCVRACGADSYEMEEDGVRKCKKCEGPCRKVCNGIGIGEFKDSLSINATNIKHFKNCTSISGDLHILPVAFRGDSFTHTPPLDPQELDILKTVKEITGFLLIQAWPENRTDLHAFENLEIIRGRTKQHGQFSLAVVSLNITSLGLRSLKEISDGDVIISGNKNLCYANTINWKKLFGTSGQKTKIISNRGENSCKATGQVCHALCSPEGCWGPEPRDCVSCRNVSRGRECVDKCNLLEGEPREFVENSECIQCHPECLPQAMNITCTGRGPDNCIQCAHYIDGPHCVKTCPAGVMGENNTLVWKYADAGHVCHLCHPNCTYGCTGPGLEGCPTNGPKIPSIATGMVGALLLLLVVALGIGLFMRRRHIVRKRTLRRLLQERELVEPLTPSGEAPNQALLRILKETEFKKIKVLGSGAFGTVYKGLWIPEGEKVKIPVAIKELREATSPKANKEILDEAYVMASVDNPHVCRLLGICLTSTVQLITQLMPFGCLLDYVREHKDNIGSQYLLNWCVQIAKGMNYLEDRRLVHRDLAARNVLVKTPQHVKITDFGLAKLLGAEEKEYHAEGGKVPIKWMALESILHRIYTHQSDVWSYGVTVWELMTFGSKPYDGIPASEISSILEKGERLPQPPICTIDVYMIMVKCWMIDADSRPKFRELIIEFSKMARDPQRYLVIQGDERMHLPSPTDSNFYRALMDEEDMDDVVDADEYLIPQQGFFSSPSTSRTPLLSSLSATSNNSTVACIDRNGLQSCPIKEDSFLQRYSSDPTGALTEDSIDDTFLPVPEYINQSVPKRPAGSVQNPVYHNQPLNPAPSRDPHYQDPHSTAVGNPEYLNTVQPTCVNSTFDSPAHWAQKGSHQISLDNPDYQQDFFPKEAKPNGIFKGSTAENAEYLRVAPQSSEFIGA
Experiment [1] deals with ErbB2 with Exon 20 YVMA insertion (HER2-YVMA) (Homo sapiens (Human), UniProt P04626, INS775YVMA). As to the kind of experiment: Cellular Phosphorylation Assay, Assay 4 (constitutive ErbB2 phosphorylation, NIH 3T3 cells). Type of experiment: cell-based.
Chain of ErbB2 with Exon 20 YVMA insertion (HER2-YVMA) (P04626 other isoform, or with tags, fused parts or gaps ins YVMA behind 775): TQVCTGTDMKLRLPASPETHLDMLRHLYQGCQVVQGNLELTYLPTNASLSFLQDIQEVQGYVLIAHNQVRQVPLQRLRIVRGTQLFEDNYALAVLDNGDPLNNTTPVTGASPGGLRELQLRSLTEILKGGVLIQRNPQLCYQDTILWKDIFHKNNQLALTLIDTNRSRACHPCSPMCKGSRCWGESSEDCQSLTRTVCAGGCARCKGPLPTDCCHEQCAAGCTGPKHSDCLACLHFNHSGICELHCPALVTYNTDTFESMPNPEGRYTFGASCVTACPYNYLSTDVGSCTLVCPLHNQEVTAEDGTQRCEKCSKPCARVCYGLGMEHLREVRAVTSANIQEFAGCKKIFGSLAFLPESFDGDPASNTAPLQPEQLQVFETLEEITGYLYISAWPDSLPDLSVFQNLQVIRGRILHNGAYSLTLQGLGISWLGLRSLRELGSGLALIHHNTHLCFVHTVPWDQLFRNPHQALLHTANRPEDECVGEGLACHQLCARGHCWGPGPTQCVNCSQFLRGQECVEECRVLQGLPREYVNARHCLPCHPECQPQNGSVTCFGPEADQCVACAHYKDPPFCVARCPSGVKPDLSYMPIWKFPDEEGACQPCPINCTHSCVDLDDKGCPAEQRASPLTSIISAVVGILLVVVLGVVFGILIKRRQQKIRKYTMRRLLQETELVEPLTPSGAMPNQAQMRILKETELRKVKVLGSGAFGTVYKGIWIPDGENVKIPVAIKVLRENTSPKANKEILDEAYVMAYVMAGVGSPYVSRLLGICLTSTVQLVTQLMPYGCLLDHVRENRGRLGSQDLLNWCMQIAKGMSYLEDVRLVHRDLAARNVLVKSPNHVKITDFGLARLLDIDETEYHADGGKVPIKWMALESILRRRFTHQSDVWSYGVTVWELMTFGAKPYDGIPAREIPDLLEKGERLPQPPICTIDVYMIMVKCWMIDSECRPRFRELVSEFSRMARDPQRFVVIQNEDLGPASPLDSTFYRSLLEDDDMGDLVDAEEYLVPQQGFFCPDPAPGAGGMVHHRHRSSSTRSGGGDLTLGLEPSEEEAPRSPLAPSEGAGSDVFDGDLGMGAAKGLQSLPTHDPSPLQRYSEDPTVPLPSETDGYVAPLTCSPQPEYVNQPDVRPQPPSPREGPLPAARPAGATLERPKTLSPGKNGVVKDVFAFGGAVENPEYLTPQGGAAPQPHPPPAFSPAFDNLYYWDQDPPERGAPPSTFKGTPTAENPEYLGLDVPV
Another experiment has as its target EGFR wild type (EGFR WT) (Homo sapiens (Human), UniProt P00533). As to the kind of experiment: Cellular Phosphorylation Assay, Assay 5 (EGF-stimulated EGFR phosphorylation, NIH 3T3 cells). Type of experiment: cell-based.
Setting [2] is: cellular ErbB2 YVMA phosphorylation.
Where [3] appears, read: cellular EGFR WT phosphorylation, EGF-stimulated.
[4] abbreviates: EGF-stimulated EGFR WT phosphorylation.

Chain of ErbB2 WT (P04626 23-1255): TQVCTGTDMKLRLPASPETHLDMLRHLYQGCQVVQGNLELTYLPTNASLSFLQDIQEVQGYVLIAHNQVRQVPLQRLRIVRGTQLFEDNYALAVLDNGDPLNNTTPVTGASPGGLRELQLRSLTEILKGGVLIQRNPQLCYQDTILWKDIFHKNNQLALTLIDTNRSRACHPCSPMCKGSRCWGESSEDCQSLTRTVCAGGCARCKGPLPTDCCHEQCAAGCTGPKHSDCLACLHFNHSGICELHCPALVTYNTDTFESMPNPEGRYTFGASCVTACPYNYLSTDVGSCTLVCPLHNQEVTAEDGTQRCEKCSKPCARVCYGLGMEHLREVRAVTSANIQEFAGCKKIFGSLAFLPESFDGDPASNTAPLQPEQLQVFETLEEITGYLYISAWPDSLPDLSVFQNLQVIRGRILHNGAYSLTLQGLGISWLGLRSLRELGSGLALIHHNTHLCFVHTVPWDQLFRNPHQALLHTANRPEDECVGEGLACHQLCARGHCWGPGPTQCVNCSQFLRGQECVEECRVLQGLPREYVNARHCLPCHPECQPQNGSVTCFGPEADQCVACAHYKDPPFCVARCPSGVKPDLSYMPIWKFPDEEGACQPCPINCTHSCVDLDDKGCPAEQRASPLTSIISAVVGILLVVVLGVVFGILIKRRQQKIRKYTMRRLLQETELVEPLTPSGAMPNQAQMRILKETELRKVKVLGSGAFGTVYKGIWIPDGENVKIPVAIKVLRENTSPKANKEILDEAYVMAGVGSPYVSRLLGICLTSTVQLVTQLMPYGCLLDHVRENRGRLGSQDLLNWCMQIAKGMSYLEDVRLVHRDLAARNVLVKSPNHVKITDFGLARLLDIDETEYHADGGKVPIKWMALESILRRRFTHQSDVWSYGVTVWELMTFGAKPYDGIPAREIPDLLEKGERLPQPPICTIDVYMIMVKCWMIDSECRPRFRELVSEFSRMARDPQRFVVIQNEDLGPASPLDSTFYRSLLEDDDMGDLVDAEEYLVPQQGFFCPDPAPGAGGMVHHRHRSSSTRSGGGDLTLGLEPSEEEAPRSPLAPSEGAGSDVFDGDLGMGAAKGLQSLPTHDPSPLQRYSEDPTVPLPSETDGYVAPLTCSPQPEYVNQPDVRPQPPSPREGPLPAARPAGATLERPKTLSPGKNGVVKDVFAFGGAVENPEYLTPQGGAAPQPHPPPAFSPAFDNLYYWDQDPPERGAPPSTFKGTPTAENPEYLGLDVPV
Chain of EGFR wild type (EGFR WT) (P00533 25-1210): as the sequence (P00533 25-1210) above

For orientation: IC50 means the concentration that gives 50% inhibition. Regarding `C=CC(=O)N1[C@H](C)CN(c2ccc3ncnc(Nc4ccc(Oc5ccc6c(c5)ncn6C)c(C)c4F)c3n2)C[C@H]1C` [Example 255], the half-inhibitory concentration (IC50) was 0.795 µM at ErbB2 WT (ErbB2 WT enzyme assay), at least 10 µM against EGFR (EGFR enzyme assay), 0.172 µM in experiment [1] (setting [2]) and at least 5 µM on EGFR wild type (EGFR WT) (setting [3]).
In the same order, the values of `C=CC(=O)N1[C@@H](C)CC(c2ccc3ncnc(Nc4ccc(Oc5ccc6c(c5)ncn6C)c(C)c4F)c3n2)C[C@@H]1C` (mixture of isomers) [Example 313] are 0.0797 µM, at least 10 µM, 0.0519 µM and at least 5 µM.
Regarding `C=CC(=O)N1CCN(c2nc3c(Nc4ccc(Oc5ccn6ncnc6c5)c(C)c4F)ncnc3cc2Cl)C[C@@H]1C` [Example 149, (S)-1-(4-(4-((4-([1,2,4]triazolo[1,5-a]pyridin-7-yloxy)-2-fluoro-3-methylphenyl)amino)-7-chloropyrido[3,2-d]pyrimidin-6-yl)-2-methylpiperazin-1-yl)prop-2-en-1-one], the IC50 was 0.323 µM on ErbB2 WT (ErbB2 WT enzyme), 6.7 µM against EGFR (EGFR enzyme), 0.192 µM in experiment [1] (ErbB2 YVMA phosphorylation) and at least 5 µM against EGFR wild type (EGFR WT) (setting [4]).
Consider `C=CC(=O)N1[C@@H](C)CN(c2ccc3ncnc(Nc4cc(C)c(Oc5ccc6c(c5)ncn6C)cc4F)c3n2)C[C@@H]1C` [Example 257], for which the IC50 at ErbB2 WT (ErbB2 WT enzyme assay) is 0.0542 µM; on EGFR (EGFR enzyme assay), at least 10 µM; in experiment [1] (setting [2]) it was 0.115 µM; against EGFR wild type (EGFR WT) (setting [3]), at least 5 µM.
As for `C=CC(=O)N1C[C@H]2CC[C@@H](C1)[C@@H]2c1ccc2ncnc(Nc3ccc(Oc4ccn5ncnc5c4)c(C)c3)c2n1` [Example 221, 1-((1R,5S,8r)-8-(4-((4-([1,2,4]triazolo[1,5-a]pyridin-7-yloxy)-3-methylphenyl)amino)pyrido[3,2-d]pyrimidin-6-yl)-3-azabicyclo[3.2.1]octan-3-yl)prop-2-en-1-one], the IC50 against ErbB2 WT (ErbB2 WT enzyme) is 0.0285 µM; against EGFR (EGFR enzyme), 2.69 µM; in experiment [1] (ErbB2 YVMA phosphorylation) it was 0.078 µM; against EGFR wild type (EGFR WT) (setting [4]), at least 5 µM.
Take `C=CC(=O)N1C[C@@H]2C[C@H]1CC[C@@H]2c1ccc2ncnc(Nc3ccc(Oc4ccn5ncnc5c4)c(C)c3F)c2n1` [Example 381]: the IC50 on ErbB2 WT (ErbB2 WT enzyme assay) stood at 0.0289 µM; at EGFR (EGFR enzyme assay), 1.72 µM; in experiment [1] (setting [2]), 0.0673 µM; against EGFR wild type (EGFR WT) (setting [3]), 2.64 µM.
Regarding `C=CC(=O)N1[C@H](C)C[C@@H](c2ccc3ncnc(Nc4ccc(Oc5ccc6c(c5)ncn6C)c(C)c4F)c3n2)C[C@@H]1C` [Example 166, 1-((2R,4SR,6S)-4-(4-((2-fluoro-3-methyl-4-((1-methyl-1H-benzo[d]imidazol-5-yl)oxy)phenyl)amino)pyrido[3,2-d]pyrimidin-6-yl)-2,6-dimethylpiperidin-1-yl)prop-2-en-1-one], the IC50 on ErbB2 WT (ErbB2 WT enzyme) was 0.0642 µM; at EGFR (EGFR enzyme), at least 10 µM; in experiment [1] (ErbB2 YVMA phosphorylation), 0.0646 µM; at EGFR wild type (EGFR WT) (setting [4]), at least 5 µM.
On to `C=CC(=O)N1CCCCC(c2ccc3ncnc(Nc4cc(C)c(Oc5ccn6ncnc6c5)cc4F)c3n2)C1` (stereo not shown) [Example 376], for which the IC50 against ErbB2 WT (ErbB2 WT enzyme assay) amounted to 0.0335 µM; on EGFR (EGFR enzyme assay), 2.11 µM; in experiment [1] (setting [2]) it was 0.036 µM; on EGFR wild type (EGFR WT) (setting [3]), 4.49 µM.
`C=CC(=O)N1CC[C@H](c2ccc3ncnc(Nc4cc(C)c(Oc5ccc6c(c5)ncn6C)cc4F)c3n2)CC(C)(C)C1` (racemic) [Example 139, rac-(R)-1-(5-(4-((2-fluoro-5-methyl-4-((1-methyl-1H-benzo[d]imidazol-5-yl)oxy)phenyl)amino)pyrido[3,2-d]pyrimidin-6-yl)-3,3-dimethylazepan-1-yl)prop-2-en-1-one]: the IC50 was at least 10 µM on ErbB2 WT (ErbB2 WT enzyme), at least 10 µM against EGFR (EGFR enzyme), 0.0325 µM in experiment [1] (ErbB2 YVMA phosphorylation) and at least 5 µM against EGFR wild type (EGFR WT) (setting [4]).
In the case of `C=C(C)C(=O)N1CCN(c2ccc3ncnc(Nc4ccc(Oc5ccn6ncnc6c5)c(C)c4F)c3n2)CC1` [Example 364], the IC50 was 0.127 µM against ErbB2 WT (ErbB2 WT enzyme assay), at least 10 µM at EGFR (EGFR enzyme assay), 0.556 µM in experiment [1] (setting [2]) and at least 5 µM against EGFR wild type (EGFR WT) (setting [3]).
Consider `C=CC(=O)N1C[C@H]2C[C@@H]1CN(c1ccc3ncnc(Nc4cc(C)c(Oc5ccc6c(c5)ncn6C)cc4F)c3n1)C2` [Example 119, 1-((1S,5R)-3-(4-((2-fluoro-5-methyl-4-((1-methyl-1H-benzo[d]imidazol-5-yl)oxy)phenyl)amino)pyrido[3,2-d]pyrimidin-6-yl)-3,6-diazabicyclo[3.2.1]octan-6-yl)prop-2-en-1-one], for which the IC50 at ErbB2 WT (ErbB2 WT enzyme) is 0.0604 µM; at EGFR (EGFR enzyme), at least 10 µM; in experiment [1] (ErbB2 YVMA phosphorylation), 0.0094 µM; at EGFR wild type (EGFR WT) (setting [4]), at least 5 µM.
As for `C=CC(=O)N1C[C@@H]2CC[C@H]1CN2c1ccc2ncnc(Nc3cc(Cl)c(Oc4ccn5ncnc5c4)cc3F)c2n1` [Example 321], the IC50 against ErbB2 WT (ErbB2 WT enzyme assay) was found to be 0.0046 µM; on EGFR (EGFR enzyme assay), 0.0864 µM; in experiment [1] (setting [2]), 0.0038 µM; at EGFR wild type (EGFR WT) (setting [3]), 0.124 µM.
On the same counts, the results for `C=CC(=O)N1CCN(c2ccc3ncnc(Nc4cc(C)c(Oc5ccn6ncnc6c5)cc4F)c3n2)C[C@H]1COC` [Example 347] are 0.038 µM, 0.772 µM, 0.0082 µM and 0.38 µM.
In the same order, the values of `C=CC(=O)N1CCN(c2ccc3ncnc(Nc4cc(C)c(Oc5ccn6ncnc6c5)cc4F)c3n2)C[C@@H]1C(F)F` (racemic) [Example 312] are 0.0238 µM, 0.892 µM, 0.0134 µM and 0.312 µM.
In the same order, the values of `C=CC(=O)N1[C@@H]2CC[C@H]1[C@H](c1ccc3ncnc(Nc4cc(C)c(Oc5cnc6c(c5)ncn6C)cc4F)c3n1)C2` [Example 417] are 0.215 µM, at least 10 µM, 0.0516 µM and at least 5 µM.
Take `C=CC(=O)N1CCN(c2ccc3ncnc(Nc4ccc(Oc5ccn6ncnc6c5)c(C)c4F)c3n2)CC12CC2` [Example 338]: the IC50 at ErbB2 WT (ErbB2 WT enzyme assay) was 0.007 µM; on EGFR (EGFR enzyme assay), 0.108 µM; in experiment [1] (setting [2]), 0.0049 µM; against EGFR wild type (EGFR WT) (setting [3]), 0.0689 µM.
Take `C=CC(=O)N1CCN(c2ccc3ncnc(Nc4ccc(Oc5ccn6ncnc6c5)c(Cl)c4F)c3n2)C[C@H]1C(F)(F)F` [Example 85, (S)-1-(4-(4-((4-([1,2,4]triazolo[1,5-a]pyridin-7-yloxy)-3-chloro-2-fluorophenyl)amino)pyrido[3,2-d]pyrimidin-6-yl)-2-(trifluoromethyl)piperazin-1-yl)prop-2-en-1-one]: the IC50 on ErbB2 WT (ErbB2 WT enzyme) is 0.0031 µM; at EGFR (EGFR enzyme) it was 0.205 µM; in experiment [1] (ErbB2 YVMA phosphorylation) it was 0.025 µM; against EGFR wild type (EGFR WT) (setting [4]), 0.446 µM.
For `C=CC(=O)N1CCN(c2ccc3ncnc(Nc4cnc(Oc5ccn6ncnc6c5)c(C)c4)c3n2)CC1(C)C` [Example 449], the IC50 at ErbB2 WT (ErbB2 WT enzyme assay) was 0.0919 µM; at EGFR (EGFR enzyme assay), 7.51 µM; in experiment [1] (setting [2]), 0.0562 µM; against EGFR wild type (EGFR WT) (setting [3]), at least 5 µM.
In the same order, the values of `C=CC(=O)N1CCN(c2ccc3ncnc(Nc4cc(Cl)c(Oc5ccn6ncnc6c5)cc4F)c3n2)C[C@H]1C(C)(C)C` [Example 309] are 10 µM, at least 10 µM, 0.0161 µM and at least 5 µM.
